# Data taken from publication PMC6437697 (Journal of Medicinal Chemistry, 2019).
# Experiments:
# Experiment in all cases: KINOMEscan
# Assay type in all cases: binding
# Details in all cases: read-out: % control activity remaining
# [1] = molecular target: T1, MAPKAPK2 (Homo sapiens, UniProt P49137)
# T1 construct: purchased Eurofins DiscoverX KINOMEscan
# [2] = molecular target: T2, SNRK (Homo sapiens, UniProt Q9NRH2)
# T2 construct: purchased Eurofins DiscoverX KINOMEscan
# T2 sequence (Q9NRH2 1-765): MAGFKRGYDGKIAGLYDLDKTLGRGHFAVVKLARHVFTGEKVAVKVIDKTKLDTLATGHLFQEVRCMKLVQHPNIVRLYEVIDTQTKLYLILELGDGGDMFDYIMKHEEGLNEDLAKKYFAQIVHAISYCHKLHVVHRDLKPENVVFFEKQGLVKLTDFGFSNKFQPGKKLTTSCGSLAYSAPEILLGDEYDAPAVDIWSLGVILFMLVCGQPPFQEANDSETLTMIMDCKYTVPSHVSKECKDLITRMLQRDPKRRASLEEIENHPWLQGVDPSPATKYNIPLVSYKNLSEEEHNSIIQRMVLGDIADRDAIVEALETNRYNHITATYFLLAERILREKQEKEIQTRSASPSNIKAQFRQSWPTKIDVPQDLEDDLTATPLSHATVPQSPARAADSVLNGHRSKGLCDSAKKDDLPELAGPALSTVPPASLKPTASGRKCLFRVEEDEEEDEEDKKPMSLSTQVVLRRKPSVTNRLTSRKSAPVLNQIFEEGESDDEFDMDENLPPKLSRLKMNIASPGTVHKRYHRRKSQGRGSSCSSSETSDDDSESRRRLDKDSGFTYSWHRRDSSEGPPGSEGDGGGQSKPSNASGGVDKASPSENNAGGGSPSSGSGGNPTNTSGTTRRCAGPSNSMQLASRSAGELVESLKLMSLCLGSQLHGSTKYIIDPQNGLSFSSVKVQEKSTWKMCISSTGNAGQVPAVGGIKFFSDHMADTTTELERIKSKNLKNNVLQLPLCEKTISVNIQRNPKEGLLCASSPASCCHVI
# [3] = molecular target: T3, TGFBR2 (Homo sapiens, UniProt P37173)
# T3 construct: purchased Eurofins DiscoverX KINOMEscan
# [4] = molecular target: T4, MEK1 (Homo sapiens, UniProt Q02750)
# T4 construct: purchased Eurofins DiscoverX KINOMEscan
# T4 sequence (Q02750 whole entry): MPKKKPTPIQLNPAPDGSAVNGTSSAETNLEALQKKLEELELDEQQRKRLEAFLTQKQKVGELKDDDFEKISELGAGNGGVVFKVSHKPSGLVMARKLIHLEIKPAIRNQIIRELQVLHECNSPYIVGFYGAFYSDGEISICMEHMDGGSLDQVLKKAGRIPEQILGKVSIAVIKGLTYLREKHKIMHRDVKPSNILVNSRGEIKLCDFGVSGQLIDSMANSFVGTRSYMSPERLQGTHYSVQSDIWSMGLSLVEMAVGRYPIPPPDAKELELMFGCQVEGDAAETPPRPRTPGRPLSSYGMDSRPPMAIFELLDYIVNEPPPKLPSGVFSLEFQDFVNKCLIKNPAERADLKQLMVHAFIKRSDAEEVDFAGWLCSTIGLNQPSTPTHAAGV
# [5] = molecular target: T5, AMPK-alpha1 (Homo sapiens, UniProt Q13131)
# T5 construct: purchased Eurofins DiscoverX KINOMEscan
# [6] = molecular target: T6, ALK(C1156Y) (Homo sapiens, UniProt Q9UM73, C1156Y)
# T6 construct: purchased Eurofins DiscoverX KINOMEscan
# [7] = molecular target: T7, CLK1 (Homo sapiens, UniProt P49759)
# T7 construct: purchased Eurofins DiscoverX KINOMEscan
# T7 sequence (P49759 whole entry): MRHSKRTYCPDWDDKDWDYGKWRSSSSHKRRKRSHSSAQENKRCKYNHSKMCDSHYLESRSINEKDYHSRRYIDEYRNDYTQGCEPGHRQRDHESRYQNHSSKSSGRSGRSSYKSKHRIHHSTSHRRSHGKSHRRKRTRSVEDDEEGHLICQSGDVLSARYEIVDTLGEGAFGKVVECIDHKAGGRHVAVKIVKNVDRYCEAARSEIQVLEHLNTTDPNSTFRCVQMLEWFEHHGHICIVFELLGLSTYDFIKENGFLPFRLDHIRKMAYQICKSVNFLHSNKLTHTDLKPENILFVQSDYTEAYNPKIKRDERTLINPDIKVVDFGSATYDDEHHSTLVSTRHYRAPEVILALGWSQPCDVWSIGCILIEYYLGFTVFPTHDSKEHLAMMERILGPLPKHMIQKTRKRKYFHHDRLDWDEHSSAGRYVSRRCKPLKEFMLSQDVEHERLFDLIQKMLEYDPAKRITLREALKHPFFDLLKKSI
# [8] = molecular target: T8, MEK5 (Homo sapiens, UniProt Q13163)
# T8 construct: purchased Eurofins DiscoverX KINOMEscan
# T8 sequence (Q13163 1-448): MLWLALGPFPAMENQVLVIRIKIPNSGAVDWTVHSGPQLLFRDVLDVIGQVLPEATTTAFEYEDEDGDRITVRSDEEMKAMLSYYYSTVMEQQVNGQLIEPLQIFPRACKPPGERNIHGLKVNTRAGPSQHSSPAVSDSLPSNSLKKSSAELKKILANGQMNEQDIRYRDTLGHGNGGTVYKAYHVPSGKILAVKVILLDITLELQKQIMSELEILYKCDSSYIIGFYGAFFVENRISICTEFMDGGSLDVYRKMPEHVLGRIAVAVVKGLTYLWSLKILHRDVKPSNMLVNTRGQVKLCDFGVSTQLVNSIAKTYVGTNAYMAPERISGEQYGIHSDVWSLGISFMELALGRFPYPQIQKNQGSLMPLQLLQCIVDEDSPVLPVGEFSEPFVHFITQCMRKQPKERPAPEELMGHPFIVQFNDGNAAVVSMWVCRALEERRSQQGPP
# [9] = molecular target: T9, TRPM6 (Homo sapiens, UniProt Q9BX84)
# T9 construct: purchased Eurofins DiscoverX KINOMEscan
# [10] = molecular target: T10, PLK1 (Homo sapiens, UniProt P53350)
# T10 construct: purchased Eurofins DiscoverX KINOMEscan
# T10 sequence (P53350 whole entry): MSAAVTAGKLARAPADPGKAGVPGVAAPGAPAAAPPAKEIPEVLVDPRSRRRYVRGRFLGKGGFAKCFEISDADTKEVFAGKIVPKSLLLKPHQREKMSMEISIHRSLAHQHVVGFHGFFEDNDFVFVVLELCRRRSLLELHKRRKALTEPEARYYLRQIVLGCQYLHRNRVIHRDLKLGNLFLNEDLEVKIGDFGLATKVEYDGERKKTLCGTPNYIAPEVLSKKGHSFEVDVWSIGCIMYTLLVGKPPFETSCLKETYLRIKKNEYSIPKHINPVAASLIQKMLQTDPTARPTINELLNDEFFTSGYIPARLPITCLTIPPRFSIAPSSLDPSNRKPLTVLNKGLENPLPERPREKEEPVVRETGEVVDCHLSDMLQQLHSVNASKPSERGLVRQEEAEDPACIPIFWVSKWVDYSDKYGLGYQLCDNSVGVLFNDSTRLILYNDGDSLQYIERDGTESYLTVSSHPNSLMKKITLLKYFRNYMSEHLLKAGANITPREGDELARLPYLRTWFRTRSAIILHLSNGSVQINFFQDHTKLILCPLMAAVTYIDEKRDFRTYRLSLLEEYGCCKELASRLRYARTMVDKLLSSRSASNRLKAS
# [11] = molecular target: T11, IGF1R (Homo sapiens, UniProt P08069)
# T11 construct: purchased Eurofins DiscoverX KINOMEscan
# T11 sequence (P08069 31-1367 limits assumed): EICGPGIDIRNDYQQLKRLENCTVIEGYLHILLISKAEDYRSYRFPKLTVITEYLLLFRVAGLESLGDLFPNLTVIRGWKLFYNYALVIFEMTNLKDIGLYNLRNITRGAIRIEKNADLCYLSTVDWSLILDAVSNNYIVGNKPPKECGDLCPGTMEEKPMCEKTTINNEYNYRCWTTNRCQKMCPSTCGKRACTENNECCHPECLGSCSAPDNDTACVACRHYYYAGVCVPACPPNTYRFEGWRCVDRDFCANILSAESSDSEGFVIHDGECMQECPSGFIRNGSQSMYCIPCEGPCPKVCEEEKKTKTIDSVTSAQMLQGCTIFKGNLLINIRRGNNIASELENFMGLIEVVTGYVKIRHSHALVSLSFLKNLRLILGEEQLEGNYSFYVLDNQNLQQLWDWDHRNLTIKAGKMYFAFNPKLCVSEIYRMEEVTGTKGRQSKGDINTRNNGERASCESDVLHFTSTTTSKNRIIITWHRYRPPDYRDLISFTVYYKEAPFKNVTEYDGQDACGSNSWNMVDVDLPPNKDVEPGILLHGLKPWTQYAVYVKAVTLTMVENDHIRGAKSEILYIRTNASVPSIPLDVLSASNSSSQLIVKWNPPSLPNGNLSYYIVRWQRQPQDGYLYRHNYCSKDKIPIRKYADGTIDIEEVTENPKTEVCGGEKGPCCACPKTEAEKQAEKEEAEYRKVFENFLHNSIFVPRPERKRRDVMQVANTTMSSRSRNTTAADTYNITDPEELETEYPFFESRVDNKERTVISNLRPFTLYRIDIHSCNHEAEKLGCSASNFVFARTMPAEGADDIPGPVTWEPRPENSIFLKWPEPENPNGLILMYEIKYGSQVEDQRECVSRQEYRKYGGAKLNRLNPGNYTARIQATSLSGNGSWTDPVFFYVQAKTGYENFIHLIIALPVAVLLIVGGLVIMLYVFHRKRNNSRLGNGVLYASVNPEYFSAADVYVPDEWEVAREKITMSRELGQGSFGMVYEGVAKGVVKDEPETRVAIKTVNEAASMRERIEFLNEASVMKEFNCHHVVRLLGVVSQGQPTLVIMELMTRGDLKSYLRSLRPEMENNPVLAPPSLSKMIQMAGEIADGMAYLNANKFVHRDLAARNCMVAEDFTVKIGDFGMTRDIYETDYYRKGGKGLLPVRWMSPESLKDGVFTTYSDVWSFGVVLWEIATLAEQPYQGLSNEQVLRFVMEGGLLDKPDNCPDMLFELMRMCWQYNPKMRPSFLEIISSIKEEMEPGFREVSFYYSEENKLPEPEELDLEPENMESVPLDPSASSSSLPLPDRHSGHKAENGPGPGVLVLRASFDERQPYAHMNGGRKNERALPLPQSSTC
# [12] = molecular target: T12, MLK1 (Homo sapiens, UniProt P80192)
# T12 construct: purchased Eurofins DiscoverX KINOMEscan
# [13] = molecular target: T13, KIT-autoinhibited (Homo sapiens, UniProt P10721)
# T13 construct: purchased Eurofins DiscoverX KINOMEscan
# T13 sequence (P10721 26-976): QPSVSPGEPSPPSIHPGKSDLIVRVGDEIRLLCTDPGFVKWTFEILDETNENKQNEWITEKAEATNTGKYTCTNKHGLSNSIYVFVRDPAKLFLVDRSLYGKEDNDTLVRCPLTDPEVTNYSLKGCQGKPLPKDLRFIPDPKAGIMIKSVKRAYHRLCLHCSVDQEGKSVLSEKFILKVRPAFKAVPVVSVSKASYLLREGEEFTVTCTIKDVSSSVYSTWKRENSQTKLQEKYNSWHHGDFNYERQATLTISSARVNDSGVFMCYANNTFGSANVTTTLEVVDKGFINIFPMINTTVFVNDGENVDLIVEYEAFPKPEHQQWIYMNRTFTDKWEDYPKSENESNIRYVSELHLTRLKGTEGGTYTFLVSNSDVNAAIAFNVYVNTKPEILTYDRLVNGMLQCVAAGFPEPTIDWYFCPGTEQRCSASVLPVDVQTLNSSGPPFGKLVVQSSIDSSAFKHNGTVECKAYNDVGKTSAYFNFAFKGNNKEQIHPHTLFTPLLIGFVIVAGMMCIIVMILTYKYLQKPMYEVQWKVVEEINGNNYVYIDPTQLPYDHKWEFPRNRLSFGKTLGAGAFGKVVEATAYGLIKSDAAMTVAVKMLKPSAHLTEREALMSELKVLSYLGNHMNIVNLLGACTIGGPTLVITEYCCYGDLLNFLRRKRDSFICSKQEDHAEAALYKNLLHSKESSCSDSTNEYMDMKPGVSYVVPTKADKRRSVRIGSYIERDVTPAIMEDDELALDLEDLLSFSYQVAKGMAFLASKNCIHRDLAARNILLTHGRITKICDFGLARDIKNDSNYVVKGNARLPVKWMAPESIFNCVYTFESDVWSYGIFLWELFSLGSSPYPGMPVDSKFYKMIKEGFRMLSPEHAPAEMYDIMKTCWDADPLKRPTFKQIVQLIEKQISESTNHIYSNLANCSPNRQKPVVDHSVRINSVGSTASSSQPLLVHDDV
# [14] = molecular target: T14, FES (Homo sapiens, UniProt P07332)
# T14 construct: purchased Eurofins DiscoverX KINOMEscan
# T14 sequence (P07332 whole entry): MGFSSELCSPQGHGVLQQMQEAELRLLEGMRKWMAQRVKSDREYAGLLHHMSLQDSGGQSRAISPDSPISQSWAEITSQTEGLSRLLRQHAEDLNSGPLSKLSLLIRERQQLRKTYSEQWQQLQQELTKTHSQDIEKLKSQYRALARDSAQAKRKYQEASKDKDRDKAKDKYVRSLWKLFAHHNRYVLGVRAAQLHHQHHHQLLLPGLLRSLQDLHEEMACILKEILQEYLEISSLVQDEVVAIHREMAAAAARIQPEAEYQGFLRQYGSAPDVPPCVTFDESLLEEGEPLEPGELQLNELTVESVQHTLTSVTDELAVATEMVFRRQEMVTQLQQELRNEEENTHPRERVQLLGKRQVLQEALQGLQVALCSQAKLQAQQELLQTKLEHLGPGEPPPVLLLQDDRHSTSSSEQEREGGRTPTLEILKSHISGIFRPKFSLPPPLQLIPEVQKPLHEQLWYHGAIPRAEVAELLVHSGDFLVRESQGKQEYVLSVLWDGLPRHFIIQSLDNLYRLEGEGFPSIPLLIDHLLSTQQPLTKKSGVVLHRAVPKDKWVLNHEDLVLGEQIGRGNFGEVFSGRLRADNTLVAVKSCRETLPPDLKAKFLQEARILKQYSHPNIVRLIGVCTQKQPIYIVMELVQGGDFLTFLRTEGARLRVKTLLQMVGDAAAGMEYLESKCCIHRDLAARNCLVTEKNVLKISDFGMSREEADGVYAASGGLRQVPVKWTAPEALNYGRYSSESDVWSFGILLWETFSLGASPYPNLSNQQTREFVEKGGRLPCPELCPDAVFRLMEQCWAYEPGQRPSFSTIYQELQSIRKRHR
# [15] = molecular target: T15, PKAC-beta (Homo sapiens, UniProt P22694)
# T15 construct: purchased Eurofins DiscoverX KINOMEscan
# T1 sequence (P49137 whole entry): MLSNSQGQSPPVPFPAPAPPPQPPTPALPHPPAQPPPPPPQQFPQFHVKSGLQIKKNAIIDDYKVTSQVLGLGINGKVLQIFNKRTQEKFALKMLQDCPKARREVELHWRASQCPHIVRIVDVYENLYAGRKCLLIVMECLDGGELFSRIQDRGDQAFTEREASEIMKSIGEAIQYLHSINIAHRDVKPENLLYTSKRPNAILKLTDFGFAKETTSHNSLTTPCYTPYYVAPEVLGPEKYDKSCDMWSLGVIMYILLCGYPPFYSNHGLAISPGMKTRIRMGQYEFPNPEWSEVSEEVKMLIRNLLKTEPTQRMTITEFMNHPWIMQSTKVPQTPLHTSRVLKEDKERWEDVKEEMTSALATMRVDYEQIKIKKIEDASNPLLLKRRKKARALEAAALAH
Compound,remaining binding at 1 µM [1],remaining binding at 1 µM [2],remaining binding at 1 µM [3],remaining binding at 1 µM [4],remaining binding at 1 µM [5],remaining binding at 1 µM [6],remaining binding at 1 µM [7],remaining binding at 1 µM [8],remaining binding at 1 µM [9],remaining binding at 1 µM [10],remaining binding at 1 µM [11],remaining binding at 1 µM [12],remaining binding at 1 µM [13],remaining binding at 1 µM [14],remaining binding at 1 µM [15]
"Clc1cc(NCC2CC2)c2ncc(-c3ccc4[nH]ncc4c3)n2n1 [compound 2, 6-Chloro-N-(cyclopropylmethyl)-3-(1H-indazol-5-yl)imidazo[1,2-b]pyridazin-8-amine]",92%,99%,100%,95%,96%,88%,4%,85%,100%,97%,100%,85%,82%,87%,86%
O=C(CN1CCOCC1)N[C@H]1CC[C@H](Nc2cc(Cl)nn3c(-c4ccc5[nH]ncc5c4)cnc23)CC1 [compound 26],100%,100%,100%,93%,85%,64%,1.2%,95%,92%,90%,100%,100%,34%,88%,99%
"CN1CCC(CNc2cc(Cl)nn3c(-c4cc5nc(Nc6ccccc6)[nH]c5cc4F)cnc23)CC1 [compound 31, 6-Chloro-3-(6-fluoro-2-(phenylamino)-1H-benzo[d]imidazol-5-yl)-N-((1-methylpiperidin-4-yl)methyl)imidazo[1,2-b]pyridazin-8-amine]",100%,79%,100%,80%,94%,91%,16%,71%,85%,96%,95%,93%,98%,96%,90%
